Inconclusive results and toxic doses are left out. The calls were made as follows: active = survival T/C of 150% or more; inactive = T/C below 125% in these data.
Test system: B6C3F1 mice, ip Sarcoma M5076, median survival T/C
Assay: NCI In Vivo Anticancer Drug Screen. Data for tumor model Sarcoma M5076 (intraperitoneal) in B6C3F1 mice
Details: endpoint: median survival time, higher = longer survival
Protocol: The antitumor activity of compounds was measured in mice bearing transplantable tumors. Survival or tumor size were measured and the results are expressed as the measurement made in the treated group (T) divided by the measurement made in the vehicle treated control group (C). The tumor model used in this assay is Sarcoma M5076 (intraperitoneal) in B6C3F1 mice

[1] = dose: 50.0 mg/kg/injection, schedule: Q04DX004 (ip), vehicle: saline with Tween-80
[2] = dose: 100.0 mg/kg/injection, schedule: Q04DX004 (ip), vehicle: saline with Tween-80
[3] = dose: 200.0 mg/kg/injection, schedule: Q04DX004 (ip), vehicle: saline with Tween-80
[4] = dose: 400.0 mg/kg/injection, schedule: Q04DX004 (ip), vehicle: saline with Tween-80
[5] = dose: 800.0 mg/kg/injection, schedule: Q04DX004 (ip), vehicle: saline with Tween-80
[6] = dose: 200.0 mg/kg/injection, schedule: Q04DX004 (ip), vehicle: Klucel (hydroxypropylcellulose) (HPC)
[7] = dose: 400.0 mg/kg/injection, schedule: Q04DX004 (ip), vehicle: Klucel (hydroxypropylcellulose) (HPC)
[8] = dose: 50.0 mg/kg/injection, schedule: Q04DX004 (ip), vehicle: Klucel (hydroxypropylcellulose) (HPC)
[9] = dose: 100.0 mg/kg/injection, schedule: Q04DX004 (ip), vehicle: Klucel (hydroxypropylcellulose) (HPC)

Measured: T/C

COc1cccc2c1C(=O)C1=C(C2=O)c2c(O)cc(CO)cc2C(O)C1O (stereo not drawn)
inactive: dose: 6.25 mg/kg/injection, schedule: Q04DX004 (ip), vehicle: saline with Tween-80 100 % of control | dose: 12.5 mg/kg/injection, schedule: Q04DX004 (ip), vehicle: saline with Tween-80 106 % of control | dose: 25.0 mg/kg/injection, schedule: Q04DX004 (ip), vehicle: saline with Tween-80 92 % of control | [1] 101 % of control

CC1=NN(c2ccccc2)C(=O)C1=Nc1c(C)[nH]n(-c2ccccc2)c1=O
inactive: [1] 89 % of control | [2] 92 % of control | [3] 97 % of control | [4] 94 % of control

COc1ccc(N2CCCSC2=S)cc1
inactive: dose: 31.25 mg/kg/injection, schedule: Q04DX004 (ip), vehicle: saline + Tween-80 + alcohol 97 % of control | dose: 62.5 mg/kg/injection, schedule: Q04DX004 (ip), vehicle: saline + Tween-80 + alcohol 91 % of control

N#CC1C(=O)NC(=S)NC1c1ccc(C2CC(=O)NC(=S)N2)cc1 (stereo not drawn)
inactive: [1] 93 % of control | [2] 106 % of control | [3] 94 % of control | [4] 90 % of control | [5] 92 % of control

O=C1CC2(C(=O)N1CN1CCOCC1)c1ccccc1-c1ccccc12
inactive: [6] 113 % of control | [7] 121 % of control

CCN1CCC(=C(c2ccccc2)c2ccccc2)C1
inactive: dose: 18.75 mg/kg/injection, schedule: Q04DX004 (ip), vehicle: Klucel (hydroxypropylcellulose) (HPC) 105 % of control | dose: 37.5 mg/kg/injection, schedule: Q04DX004 (ip), vehicle: Klucel (hydroxypropylcellulose) (HPC) 99 % of control

COC1C(N)C(OC2C(Oc3cccc4c(O)c5c(=O)oc6ccc(C)c7c(=O)oc(c34)c5c67)OC(C)C(O)C2(C)O)OC(C)C1O (stereo not drawn)
active: dose: 2.5 mg/kg/injection, schedule: Q04DX004 (ip), vehicle: other 153 % of control | dose: 10.0 mg/kg/injection, schedule: Q04DX004 (ip), vehicle: DMSO 246 % of control | dose: 10.0 mg/kg/injection, schedule: Q04DX004 (ip), vehicle: other 165 % of control

O=C1C=CC(O)N1 (stereo not drawn)
inactive: dose: 10.0 mg/kg/injection, schedule: Q01DX009 (ip), vehicle: water 95 % of control | dose: 20.0 mg/kg/injection, schedule: Q01DX009 (ip), vehicle: water 101 % of control | dose: 40.0 mg/kg/injection, schedule: Q01DX009 (ip), vehicle: water 101 % of control | dose: 80.0 mg/kg/injection, schedule: Q01DX009 (ip), vehicle: water 101 % of control | dose: 160.0 mg/kg/injection, schedule: Q01DX009 (ip), vehicle: water 94 % of control

Cc1nn(-c2ccccn2)c2ncnc(N)c12
inactive: dose: 37.5 mg/kg/injection, schedule: Q04DX004 (ip), vehicle: saline with Tween-80 106 % of control | dose: 75.0 mg/kg/injection, schedule: Q04DX004 (ip), vehicle: saline with Tween-80 102 % of control | dose: 150.0 mg/kg/injection, schedule: Q04DX004 (ip), vehicle: saline with Tween-80 86 % of control

Cc1c(C(=N)C(C#N)C#N)c(=N)oc2c1ccc1ccccc12
inactive: [1] 96 % of control | [2] 96 % of control | [3] 92 % of control | [4] 94 % of control | [5] 93 % of control

Nc1cc(=O)n(Cc2ccco2)c(=S)[nH]1
inactive: [1] 106 % of control | [2] 97 % of control | [3] 106 % of control | [4] 107 % of control | [5] 97 % of control

CC(C)(C)NC(C1=CC(C)(C)c2ccccc2C1=O)c1ccccc1 (stereo not drawn)
inactive: [8] 103 % of control | [9] 101 % of control | [6] 110 % of control | [7] 104 % of control

NC(C(=O)O)/C1=C/CCCCCC1 (stereo not drawn)
inactive: dose: 25.0 mg/kg/injection, schedule: Q04DX004 (ip), vehicle: Klucel (hydroxypropylcellulose) (HPC) 100 % of control | [8] 98 % of control | [9] 100 % of control | [6] 111 % of control | [7] 103 % of control

CC1=CC(C)(C)N=C2SC(COc3ccccc3)=NN12
inactive: [1] 104 % of control | [2] 96 % of control | [3] 93 % of control | [4] 99 % of control
